test system: SARS-CoV-2; assay: microbe, parasite or virus in culture; settings: Severe acute respiratory syndrome coronavirus 2, Munich 929, Huh-7

Row | Structure (SMILES) | EC50
1 | CCCC[C@H](NC(=O)OCc1ccccc1)C(=O)N[C@H](/C=C/C(C)=O)C[C@@H]1CCNC1=O | 18500 nM
2 | CC(=O)/C=C/[C@H](C[C@@H]1CCNC1=O)NC(=O)[C@H](CC1CC1)NC(=O)OCc1ccccc1 | 1500 nM
3 | CC(=O)/C=C/[C@H](C[C@@H]1CCNC1=O)NC(=O)[C@H](CC1CCCCC1)NC(=O)OCc1ccccc1 | 1800 nM

Source: ChEMBL document CHEMBL5331084, “Structure-based lead optimization of peptide-based vinyl methyl ketones as SARS-CoV-2 main protease inhibitors” (Eur J Med Chem, 2023)
